From patent US20230031406A1, “COMPOUNDS AND COMPOSITIONS FOR TREATING CONDITIONS ASSOCIATED WITH NLRP ACTIVITY” (Novartis AG, priority 2018, published 2023)
Like-named read-outs stand apart in the source and are kept apart here. Blank lines part the entries; values can stand above or below the compound they belong to.

System: PMA-differentiated THP-1 cells
Test: IL-1β production in PMA-differentiated THP-1 cells stimulated with gramicidin (hTHP-1 assay containing 2% fetal bovine serum; Procedures 1 and 2)
Format: cell-based, human
Conditions: 2% fetal bovine serum
Method in brief: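 THP-1 cells were differentiated with PMA (20 ng/ml, 16-18 h), detached, and plated at 50,000 cells/well in RPMI 1640 with 2% FBS. They were pre-treated with compound (0.0017–100 μM, 0.37% DMSO) for 1 h, then stimulated with gramicidin (5 μM) for 2 h. Supernatant IL-1β was measured by HTRF.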

[1] = Table B2, class symbols, read-out: hTHP-1 IC50
[2] = Homo sapiens, THP-1, Table B2, class symbols, read-out: hTHP-1 IC50
[3] = Homo sapiens, THP-1, Table B1, numeric bounds, read-out: Average IC50 of compounds in hTHP-1 assay: hTHP-1 IC50
[4] = Table B1, class symbols, read-out: Average IC50 of compounds in hTHP-1 assay: hTHP-1 IC50
[5] = Homo sapiens, THP-1, Table B3, hTHP-1 assay, class symbols, read-out: IC50
[6] = Homo sapiens, THP-1, Table B1, class symbols, read-out: Average IC50 of compounds in hTHP-1 assay: hTHP-1 IC50

SMILES: CC(C)(O)c1sc(S(N)(=O)=NC(=O)Nc2c3c(nc4c2CCC42CC2)CCC3)cc1F (stereo not drawn) [Compound 614, 4-Fluoro-5-(2-hydroxypropan-2-yl)-N′-((1′,5′,6′,7′-tetrahydro-2′H-spiro[cyclopropane-1,3′-dicyclopenta[b,e]pyridin]-8′-yl)carbamoyl)thiophene-2-sulfonimidamide]
IC50 [2]: 0.2 to 1 µM

SMILES: CC1CCc2c1nc1c(c2NC(=O)N=S(N)(=O)c2sc(C(C)(C)O)nc2CO)CCC1 (single isomer, unassigned) [Compound 168ab, (S,R) or (S,S)-4-(hydroxymethyl)-2-(2-hydroxypropan-2-yl)-N′-((3-methyl-1,2,3,5,6,7-hexahydrodicyclo-penta[b,e]pyridin-8-yl)carbamoyl)thiazole-5-sulfonimidamide]
IC50 [3]: > 30 µM

SMILES: CC(C)(O)c1csc(S(N)(=O)=NC(=O)Nc2c3c(nc4c2CCC4)CCC3)c1 (single isomer, unassigned) [Compound 155a, (R) or (S)-N′-((1,2,3,5,6,7-hexahydrodicyclo-penta[b,e]pyridin-8-yl)carbamoyl)-4-(2-hydroxypropan-2-yl)thiophene-2-sulfonimidamide]
IC50 [4]: 0.04 to 0.2 µM

SMILES: Cc1c(C(F)(F)F)nc2c(c1NC(=O)N=S(N)(=O)c1ccn(C)n1)CCC2 (stereo not drawn) [Example 633, 1-Methyl-N′-((3-methyl-2-(trifluoromethyl)-6,7-dihydro-5H-cyclopenta[b]pyridin-4-yl)carbamoyl)-1H-pyrazole-3-sulfonimidamide]
IC50 [5]: 5 to 30 µM

SMILES: CC(C)(O)c1ncc(S(N)(=O)=NC(=O)Nc2c3c(nc4c2CCC4)CCCC3)s1 (single isomer, unassigned) [Compound 161b, (R) or (S)-N′-((2,3,5,6,7,8-hexahydro-1H-cyclopenta[b]quinolin-9-yl)carbamoyl)-2-(2-hydroxypropan-2-yl)thiazole-5-sulfonimidamide]
IC50 [4]: 1 to 5 µM

SMILES: CCc1cc(NC(=O)N=S(N)(=O)c2cnc(C(C)(C)O)s2)c2c(n1)CCC2 (stereo not drawn) [Compound 137, N′-((2-ethyl-6,7-dihydro-5H-cyclopenta[b]pyridin-4-yl)carbamoyl)-2-(2-hydroxypropan-2-yl)thiazole-5-sulfonimidamide]
IC50 [3]: > 30 µM

SMILES: CC(C)(O)c1ccc(S(N)(=O)=NC(=O)Nc2c3c(nc4c2CCC4)CCC3)cn1 (stereo not drawn) [Compound 156, N′-((1,2,3,5,6,7-hexahydrodicyclopenta[b,e]pyridin-8-yl)carbamoyl)-6-(2-hydroxypropan-2-yl)pyridine-3-sulfonimidamide]
IC50 [3]: > 30 µM

SMILES: CC(C)(O)c1ncc(S(N)(=O)=NC(=O)Nc2cc(C(F)F)nc3c2CCC3)s1 (stereo not drawn) [Example 614, N′-((2-(difluoromethyl)-6,7-dihydro-5H-cyclopenta[b]pyridin-4-yl)carbamoyl)-2-(2-hydroxypropan-2-yl)thiazole-5-sulfonimidamide]
IC50 (Homo sapiens, THP-1, Table B3, hTHP-1 assay, numeric values, read-out: IC50): > 30 µM

SMILES: Cc1c(C(F)(F)F)nc2c(c1NC(=O)N=S(N)(=O)c1nn(C(F)F)cc1F)CCC2 (single isomer, unassigned) [Example 562]
IC50 (Table B3, hTHP-1 assay, class symbols, read-out: IC50): 0.2 to 1 µM

SMILES: Cc1c(C(F)(F)F)nc2c(c1NC(=O)N=S(N)(=O)c1nn(-c3ccccc3)cc1F)CCC2 (stereo not drawn) [Example 749, 4-Fluoro-N′-((3-methyl-2-(trifluoromethyl)-6,7-dihydro-5H-cyclopenta[b]pyridin-4-yl)carbamoyl)-1-phenyl-1H-pyrazole-3-sulfonimidamide]
IC50 (Homo sapiens, THP-1, Table B4, class symbols, read-out: hTHP-1 IC50): 1 to 5 µM

SMILES: CC(C)(O)c1cc(F)c(S(N)(=O)=NC(=O)Nc2c3c(nc4c2CCC4(C)C)CCC3)s1 (stereo not drawn) [Compound 102, N′-((3,3-dimethyl-1,2,3,5,6,7-hexahydrodicyclopenta[b,e]pyridin-8-yl)carbamoyl)-3-fluoro-5-(2-hydroxypropan-2-yl)thiophene-2-sulfonimidamide]
IC50 [6]: 0.04 to 0.2 µM

SMILES: CC1(C)CCc2c1nc1c(c2NC(=O)N=S(N)(=O)c2sc([C@@](C)(O)CO)nc2CO)CCC1 (stereo partly drawn) [Example 599, 2-((S)-1,2-dihydroxypropan-2-yl)-N′-((3,3-dimethyl-1,2,3,5,6,7-hexahydrodicyclopenta[b,e]pyridin-8-yl)carbamoyl)-4-(hydroxymethyl)thiazole-5-sulfonimidamide]
IC50 [5]: 1 to 5 µM

SMILES: CC1(C)CCc2c1nc1c(c2NC(=O)N=S(N)(=O)c2sc(C(C)(O)CO)nc2CO)CCC1 (stereo not drawn) [Example 598, 2-(1,2-Dihydroxypropan-2-yl)-N′-((3,3-dimethyl-1,2,3,5,6,7-hexahydrodicyclopenta[b,e]pyridin-8-yl)carbamoyl)-4-(hydroxymethyl)thiazole-5-sulfonimidamide]
IC50 [5]: 0.2 to 1 µM

SMILES: CC1(C)CCc2c1nc1c(c2NC(=O)N=S(N)(=O)c2sc([C@](C)(O)CO)nc2CO)CCC1 (stereo partly drawn) [Example 600, 2-((R)-1,2-dihydroxypropan-2-yl)-N′-((3,3-dimethyl-1,2,3,5,6,7-hexahydrodicyclopenta[b,e]pyridin-8-yl)carbamoyl)-4-(hydroxymethyl)thiazole-5-sulfonimidamide]
IC50 [5]: 0.2 to 1 µM

SMILES: CC1CCc2c1nc1c(c2NC(=O)N=S(N)(=O)c2cc(C(C)(C)O)cs2)CCC1C (stereo not drawn) [131f^]
IC50 [4]: 1 to 5 µM

SMILES: Cc1c(C2(F)CC2)nc2c(c1NC(=O)N=S(N)(=O)c1sc(C(C)(C)O)cc1F)CCC2 (single isomer, unassigned) [Example 685, (R) or (S)-3-fluoro-N′-((2-(1-fluorocyclopropyl)-3-methyl-6,7-dihydro-5H-cyclopenta [b]pyridin-4-yl)carbamoyl)-5-(2-hydroxypropan-2-yl) thiophene-2-sulfonimidamide]
IC50 [5]: 0.2 to 1 µM

SMILES: Cc1nc2c(c(NC(=O)N=S(N)(=O)c3cc(C(C)(C)O)cs3)c1C(C)C)CCC2 (stereo not drawn) [Compound 622, 4-(2-Hydroxypropan-2-yl)-N′-((3-isopropyl-2-methyl-6,7-dihydro-5H-cyclopenta[b]pyridin-4-yl)carbamoyl)thiophene-2-sulfonimidamide]
IC50 [2]: 5 to 30 µM

Next, values leading:

IC50 [1]: 0.2 to 1 µM
SMILES: CCc1c(C(F)(F)F)nc2c(c1NC(=O)N=S(N)(=O)c1cc(C(C)(C)O)cs1)CCC2 (single isomer, unassigned) [Compound 698b, (R) or (S)-N′-((3-ethyl-2-(trifluoromethyl)-6,7-dihydro-5H-cyclopenta[b]pyridin-4-yl)carbamoyl)-4-(2-hydroxypropan-2-yl)thiophene-2-sulfonimidamide]

IC50 [6]: 5 to 30 µM | IC50 [2]: 5 to 30 µM
SMILES: Cc1cc(C2CC2)nc(NC(=O)N=S(N)(=O)c2ncc(C(C)(C)O)s2)n1 (single isomer, unassigned) [Compound 185a, (R) or (S)-N′-((4-cyclopropyl-6-methylpyrimidin-2-yl)carbamoyl)-5-(2-hydroxypropan-2-yl)thiazole-2-sulfonimidamide]

IC50 [1]: 5 to 30 µM
SMILES: CCc1nc2c(c(NC(=O)N=S(N)(=O)c3sc(C(C)(C)O)cc3F)c1C1CC1)CCC2 (single isomer, unassigned) [Compound 631a, (S) or (R)-N′-((3-cyclopropyl-2-ethyl-6,7-dihydro-5H-cyclopenta[b]pyridin-4-yl)carbamoyl)-3-fluoro-5-(2-hydroxypropan-2-yl)thiophene-2-sulfonimidamide]

IC50 [1]: 5 to 30 µM
SMILES: CCn1ccc(S(N)(=O)=NC(=O)Nc2c3c(nc4c2CCC4(C)C)CCC3)n1 (single isomer, unassigned) [Compound 697a, (S) or (R)-N′-((3,3-dimethyl-1,2,3,5,6,7-hexahydrodicyclopenta [b,e]pyridin-8-yl)carbamoyl)-1-ethyl-1H-pyrazole-3-sulfonimidamide]

IC50 [1]: 5 to 30 µM
SMILES: CCC1CCc2c1nc1c(c2NC(=O)N=S(N)(=O)c2cnc(C(C)(C)O)s2)CCC1 (single isomer, unassigned) [Compound 662d, (R, R) or (R, S) or (S, R) or (S, S)-N′-((3-Ethyl-1,2,3,5,6,7-hexaliydrodicyclopenta [b,e]pyridin-8-yl)caibamoyl)-2-(2-hydroxypropan-2-yl)thiazole-5-sulfonimidamide]

IC50 [1]: 5 to 30 µM
SMILES: Cc1c(C2CC2)nc2c(c1NC(=O)N=S(N)(=O)c1cc(C(C)(C)O)cs1)CCC2C (single isomer, unassigned) [Compound 656b, (S, S) or (S, R) or (R, S) or (R, R)-N′-((2-Cyclopropyl-3,7-dimethyl-6,7-dihydro-5H-cyclopenta[b]pyridin-4-yl)carbamoyl)-4-(2-hydroxypropan-2-yl)thiophene-2-sulfonimidamide]

IC50 [1]: 0.04 to 0.2 µM
SMILES: C[C@@H]1CCc2c1nc1c(c2NC(=O)N=S(N)(=O)c2ccn(C(C)(F)F)n2)CCC1 (single isomer, unassigned) [Compound 723b, (R) or (S)-1-(1,1-Difluoroethyl)-N′-(((R)-3-methyl-1,2,3,5,6,7-hexahydrodicyclopenta [b,e]pyridin-8-yl)carbamoyl)-1H-pyrazole-3-sulfonimidamide]

IC50 (Homo sapiens, THP-1, Table B2, numeric bounds, read-out: hTHP-1 IC50): > 30 µM
SMILES: CC1(C)CCc2c1nc1c(c2NC(=O)N=S(N)(=O)c2sc(C(C)(O)CO)cc2F)CCC1 (single isomer, unassigned) [Compound 699a, (S, S) and (R, S) or (S, R) and (R, R)-5-(1,2-Dihydroxypropan-2-yl)-N′-((3,3-dimethyl-1,2,3,5,6,7-hexahydrodicyclopenta [b,e]pyridin-8-yl)carbamoyl)-3-fluorotliophene-2-sulfonimidamide]

IC50 [2]: 0.2 to 1 µM
SMILES: C[C@@H]1CCc2c1nc1c(c2NC(=O)N=S(N)(=O)c2ccn(-c3ccccc3)n2)CCC1 (single isomer, unassigned) [Compound 700b, (R) or (S)-N′-(((R)-3-methyl-1,2,3,5,6,7-hexahydrodicyclopenta [b,e]pyridin-8-yl)carbamoyl)-1-phenyl-1H-pyrazole-3-sulfonimidamide]
